Legend:
Assay in all cases: relative viability (nuclei count vs DMSO), 5 days (fraction); higher = more cells survive
[1] = compound: CN(C)C[C@@H]1CCn2cc(c3ccccc32)C2=C(C(=O)NC2=O)c2cn(c3ccccc23)CCO1 [Ruboxistaurin] + CC(=O)Nc1cccc(-n2c(=O)n(C3CC3)c(=O)c3c(Nc4ccc(I)cc4F)n(C)c(=O)c(C)c32)c1 [Trametinib] (partner 0.02 µM)
Procedure, shortened: (§1)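 A single step with final 0.05% Triton X-100, 1% formaldehyde and 1 ug/ml Hoechst fixed the cells and stained nuclei 5 days after treatment. Lung cancer cell lines in 1536-well plates had been treated by pin tool the day after seeding with one drug alone or a fixed anchor-drug dose plus five library-drug doses (not always all listed) in √10 steps, and nuclei were counted on 4× images. Relative viability is the ratio of nuclei in treated wells to nuclei in vehicle wells, taken as the median of duplicate plates.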

[2] = compound: CN(C)C[C@@H]1CCn2cc(c3ccccc32)C2=C(C(=O)NC2=O)c2cn(c3ccccc23)CCO1 [Ruboxistaurin] + CC1(C)CCC(c2ccc(Cl)cc2)=C(CN2CCN(c3ccc(C(=O)NS(=O)(=O)c4ccc(N[C@H](CCN5CCOCC5)CSc5ccccc5)c(S(=O)(=O)C(F)(F)F)c4)cc3)CC2)C1 [Navitoclax] (partner 0.5 µM)
Procedure, shortened: as §1

Ruboxistaurin + OSI-027 = compound: CN(C)C[C@@H]1CCn2cc(c3ccccc32)C2=C(C(=O)NC2=O)c2cn(c3ccccc23)CCO1 [Ruboxistaurin] + COc1cccc2cc(-c3nc([C@H]4CC[C@H](C(=O)O)CC4)n4ncnc(N)c34)[nH]c12 [OSI-027] (partner 0.5 µM)
Procedure, shortened: as §1

[3] = compound: CN(C)C[C@@H]1CCn2cc(c3ccccc32)C2=C(C(=O)NC2=O)c2cn(c3ccccc23)CCO1 [Ruboxistaurin] + Cc1cc(Nc2cc(N3CCN(C)CC3)nc(Sc3ccc(NC(=O)C4CC4)cc3)n2)n[nH]1 [Tozasertib] (partner 0.1 µM)
Procedure, shortened: as §1

Ruboxistaurin + Olaparib = compound: CN(C)C[C@@H]1CCn2cc(c3ccccc32)C2=C(C(=O)NC2=O)c2cn(c3ccccc23)CCO1 [Ruboxistaurin] + O=C(c1cc(Cc2n[nH]c(=O)c3ccccc23)ccc1F)N1CCN(C(=O)C2CC2)CC1 [Olaparib] (partner 8 µM)
Procedure, shortened: as §1

Row | Cell Line | relative viability ([1]; first compound 0.08 µM) | relative viability ([1]; first compound 0.8 µM) | relative viability ([1]; first compound 2.53 µM) | relative viability ([1]; first compound 8 µM) | relative viability ([2]; first compound 0.08 µM) | relative viability ([2]; first compound 0.8 µM) | relative viability ([2]; first compound 2.53 µM) | relative viability ([2]; first compound 8 µM) | relative viability (Ruboxistaurin + OSI-027; first compound 0.08 µM) | relative viability (Ruboxistaurin + OSI-027; first compound 0.8 µM) | relative viability (Ruboxistaurin + OSI-027; first compound 2.53 µM) | relative viability (Ruboxistaurin + OSI-027; first compound 8 µM) | relative viability ([3]; first compound 0.08 µM) | relative viability ([3]; first compound 0.8 µM) | relative viability ([3]; first compound 2.53 µM) | relative viability ([3]; first compound 8 µM) | relative viability (Ruboxistaurin + Olaparib; first compound 0.08 µM) | relative viability (Ruboxistaurin + Olaparib; first compound 0.8 µM) | relative viability (Ruboxistaurin + Olaparib; first compound 2.53 µM) | relative viability (Ruboxistaurin + Olaparib; first compound 8 µM)
1 | NCI-H2009 | 0.328 | 0.234 | 0.258 | 0.239 | 1.21 | 1.16 | 1.18 | 1.17 | 0.735 | 0.536 | 0.608 | 0.548 | 0.765 | 0.678 | 0.768 | 0.473 | 0.764 | 0.593 | 0.748 | 0.699
2 | NCI-H2023 | 0.668 | 0.491 | 0.47 | 0.405 | 0.973 | 0.837 | 0.947 | 0.89 | 0.438 | 0.309 | 0.271 | 0.158 | 0.327 | 0.256 | 0.207 | 0.181 | 0.519 | 0.458 | 0.447 | 0.296
3 | NCI-H2085 | 0.67 | 0.538 | 0.64 | 0.502 | 1.27 | 1.1 | 1.27 | 1.26 | 0.731 | 0.521 | 0.791 | 0.446 | 0.846 | 0.74 | 0.773 | 0.797 | 0.808 | 0.703 | 0.769 | 0.909
4 | NCI-H2087 | 0.202 | 0.135 | 0.205 | 0.186 | 1.24 | 0.866 | 1.17 | 0.957 | 0.627 | 0.492 | 0.449 | 0.309 | 0.234 | 0.192 | 0.241 | 0.159 | 0.601 | 0.62 | 0.692 | 0.57
5 | NCI-H2126 | 0.617 | 0.552 | 0.617 | 0.541 | 0.914 | 0.78 | 0.844 | 0.794 | 0.811 | 0.638 | 0.776 | 0.639 | 0.975 | 0.803 | 0.923 | 0.696 | 0.888 | 0.887 | 0.915 | 0.936
6 | NCI-H2170 | 0.932 | 0.828 | 0.931 | 0.928 | 0.57 | 0.592 | 0.581 | 0.56 | 0.736 | 0.599 | 0.67 | 0.536 | 0.719 | 0.737 | 0.686 | 0.745 | 0.659 | 0.499 | 0.588 | 0.534
7 | NCI-H2228 | 0.517 | 0.379 | 0.525 | 0.368 | 0.922 | 0.907 | 1.15 | 0.692 | 0.6 | 0.439 | 0.549 | 0.281 | 0.317 | 0.202 | 0.237 | 0.187 | 0.643 | 0.564 | 0.889 | 0.696
